From paper PMC12715762, “Discovery of VU6052254: A Novel, Potent M1 Positive Allosteric Modulator” (ACS Chemical Neuroscience, 2025)
“Also recorded” adds a separate entry of the source.

What was measured:
[1] = IV/PO pharmacokinetics (dog); type: in vivo; details: Dog (beagle)
M1 KO mice = assay: Racine seizure assay in M1 KO mice; type: in vivo, mouse; details: result in words
Muscarinic M1 = Muscarinic M1 (Homo sapiens, UniProt P11229); assay: Eurofins radioligand binding
GSH trapping = type: in vitro ADME; details: human microsomes; result in words
Sprague-Dawley rats = assay: novel object recognition (NOR); type: in vivo, rat
Method: monitored continuously and scored for behavioral manifestations of seizure activity at 5, 15, 30 min, and 1 h. Behavioral manifestations of seizures were scored using a modified Racine scoring system. Briefly, a score of 0 represents no behavior alterations; score 1, immobility, mouth and facial movements, or facial clonus; score 2, head nodding, tail extension; score 3, forelimb clonus, repetitive movements; score 4, rearing and tonic clonic seizure; and score 5, continuous rearing and falling, severe generalized tonic clonic seizure.
Novel Object Recognition Task
Rats were habituated for 10 min for 2 consecutive days in an empty novel object recognition (NOR) arena consisting of dark-colored plexiglass box (40 × 64 × 33 cm3). On day 3 rats were administered vehicle, M1 PAM 3 (1-10 mg/kg, p.o.., 10 mL/kg, n = 13-18), or M 1 PAM 5 (0.3-3 mg/kg, p.o.., 10 mL/kg, n = 16-18) and returned to their home cage for 60 min (M 1 PAM 5) or 2 hr (M1 PAM 3. Rats were then placed in the NOR arena containing two identical objects for 10 min. Following the exposure period, rats were placed back into their home cages for 24 h. The rats were then returned to the arena in which one of the previously exposed (familiar) objects was replaced by a novel object and were video recorded for 5 min while they explored the two objects.
Time spent exploring each object was scored by an observer blinded to the experimental conditions and the recognition index was calculated as [(time spent exploring novel object) – (time spent exploring familiar object)]/total time exploring objects.

[2] = target: Transporter, Norepinephrine (NET) (Homo sapiens, UniProt P23975); assay: Eurofins radioligand binding
[3] = target: Transporter, Serotonin (SERT) (Homo sapiens, UniProt P31645); assay: Eurofins radioligand binding
CYP 2D6 = CYP 2D6 (Homo sapiens, UniProt P10635); assay: CYP450 inhibition; type: in vitro ADME
Sequence of CYP 2D6 (P10635 whole entry): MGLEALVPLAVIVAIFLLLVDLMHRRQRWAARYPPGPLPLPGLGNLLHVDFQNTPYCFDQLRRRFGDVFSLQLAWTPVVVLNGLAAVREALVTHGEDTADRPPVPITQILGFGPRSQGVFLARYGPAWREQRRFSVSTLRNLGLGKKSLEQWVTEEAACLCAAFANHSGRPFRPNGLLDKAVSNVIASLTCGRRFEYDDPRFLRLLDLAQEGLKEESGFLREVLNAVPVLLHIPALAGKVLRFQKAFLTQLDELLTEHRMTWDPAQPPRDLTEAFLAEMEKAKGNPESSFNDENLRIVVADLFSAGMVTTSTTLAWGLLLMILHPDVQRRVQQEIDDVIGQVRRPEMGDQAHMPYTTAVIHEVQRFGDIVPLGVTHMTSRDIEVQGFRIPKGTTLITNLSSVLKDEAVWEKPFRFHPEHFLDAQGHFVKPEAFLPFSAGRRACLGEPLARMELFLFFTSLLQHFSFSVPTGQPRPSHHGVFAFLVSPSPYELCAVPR

Sequence of Transporter, Serotonin (SERT) (P31645 whole entry): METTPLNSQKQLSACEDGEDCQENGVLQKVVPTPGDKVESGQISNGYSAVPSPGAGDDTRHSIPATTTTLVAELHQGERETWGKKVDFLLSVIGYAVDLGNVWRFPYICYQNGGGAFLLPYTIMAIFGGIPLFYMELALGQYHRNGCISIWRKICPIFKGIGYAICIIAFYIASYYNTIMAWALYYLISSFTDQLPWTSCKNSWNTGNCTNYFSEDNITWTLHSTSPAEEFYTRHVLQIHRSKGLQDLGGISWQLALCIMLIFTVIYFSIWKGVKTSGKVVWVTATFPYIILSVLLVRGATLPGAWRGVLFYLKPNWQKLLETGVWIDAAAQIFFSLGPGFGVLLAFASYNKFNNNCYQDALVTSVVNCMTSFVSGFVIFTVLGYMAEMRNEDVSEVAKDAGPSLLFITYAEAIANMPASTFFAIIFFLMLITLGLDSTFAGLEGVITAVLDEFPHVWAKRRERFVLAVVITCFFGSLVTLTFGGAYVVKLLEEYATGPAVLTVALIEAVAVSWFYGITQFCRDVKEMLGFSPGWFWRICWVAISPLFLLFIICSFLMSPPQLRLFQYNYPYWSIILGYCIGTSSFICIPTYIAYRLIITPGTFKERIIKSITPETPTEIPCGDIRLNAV
Sequence of Transporter, Norepinephrine (NET) (P23975 whole entry): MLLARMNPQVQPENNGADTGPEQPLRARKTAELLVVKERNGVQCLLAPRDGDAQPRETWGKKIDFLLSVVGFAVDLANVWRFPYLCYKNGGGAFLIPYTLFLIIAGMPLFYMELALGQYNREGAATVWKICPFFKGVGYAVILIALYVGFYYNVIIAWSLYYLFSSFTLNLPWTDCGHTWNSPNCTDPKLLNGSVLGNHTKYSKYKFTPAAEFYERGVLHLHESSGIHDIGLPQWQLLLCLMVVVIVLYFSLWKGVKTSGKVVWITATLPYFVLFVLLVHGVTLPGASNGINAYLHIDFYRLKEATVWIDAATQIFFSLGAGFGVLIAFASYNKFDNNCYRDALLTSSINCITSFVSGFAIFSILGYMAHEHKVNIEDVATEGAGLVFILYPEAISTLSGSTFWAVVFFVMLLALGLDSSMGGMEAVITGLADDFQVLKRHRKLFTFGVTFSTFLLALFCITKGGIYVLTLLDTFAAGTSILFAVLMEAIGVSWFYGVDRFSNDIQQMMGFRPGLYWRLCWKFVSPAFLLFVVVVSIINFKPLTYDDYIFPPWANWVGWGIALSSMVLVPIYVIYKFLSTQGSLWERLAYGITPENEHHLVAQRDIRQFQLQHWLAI
Sequence of Muscarinic M1 (P11229 whole entry): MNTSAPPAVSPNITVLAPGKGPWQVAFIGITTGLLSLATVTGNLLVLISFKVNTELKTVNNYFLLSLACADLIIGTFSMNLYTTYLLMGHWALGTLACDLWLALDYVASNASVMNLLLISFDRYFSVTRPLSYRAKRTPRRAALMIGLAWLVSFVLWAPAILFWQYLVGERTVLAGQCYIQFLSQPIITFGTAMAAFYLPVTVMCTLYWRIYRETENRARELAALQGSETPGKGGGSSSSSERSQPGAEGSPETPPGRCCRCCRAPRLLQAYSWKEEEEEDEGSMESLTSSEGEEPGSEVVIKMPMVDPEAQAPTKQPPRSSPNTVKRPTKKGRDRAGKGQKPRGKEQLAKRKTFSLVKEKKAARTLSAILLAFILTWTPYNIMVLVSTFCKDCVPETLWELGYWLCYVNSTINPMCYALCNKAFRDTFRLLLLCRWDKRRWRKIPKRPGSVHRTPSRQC

Question: Which “F (%) po” value ([1]; 3 mg/kg po) does the source give for `Cn1cc2c(-c3cc(F)c(CN4Cc5ncccc5C4=O)c(F)c3)ccc(C(C)(C)O)c2n1` [compound 7] here?
Answer: The value was 65%.

Question: And the clearance ([1]; plasma, 1 mg/kg iv, read-out: CLp)?
Answer: The clearance was 8.4 mL/min/kg.

Question: And the half-life ([1]; plasma, 1 mg/kg iv, read-out: Elimination t1/2 (converted))?
Answer: The half-life was 4.1 h.

Question: And the Vd ([1]; plasma, 1 mg/kg iv, read-out: Vss)?
Answer: Its Vd is 2.3 L/kg.

Question: And the AUC ([1]; plasma, 3 mg/kg po)?
Answer: The AUC was 9 µM·h.

Question: What about the Cmax ([1]; plasma, 3 mg/kg po) of the same compound?
Answer: The Cmax was 700 nM.

Question: And the Tmax ([1]; plasma, 3 mg/kg po)?
Answer: The Tmax was 1.33 h.

Question: And the “Racine-scale effects in M1 KO mice” value (M1 KO mice)?
Answer: Its value is “absent”.

Question: What about the inhibition at 10 µM (Muscarinic M1) of the same compound?
Answer: Its inhibition at 10 µM is 18%.

Question: And the GSH trapping (GSH trapping)?
Answer: The GSH trapping was “no evidence of GSH trapping”.

Question: And the “free brain concentration at NOR MED” value (Sprague-Dawley rats; 1 mg/kg PO, rat)?
Answer: Its value is 71 nM.

Question: What about the “effect on recognition index / recognition memory in NOR” value (Sprague-Dawley rats; 0.3 to 3.0 mg/kg PO, result in words) of the same compound?
Answer: The value was “dose-dependently increased the recognition index; also recorded: dose-dependently enhanced the recognition memory”.

Question: What about the “minimum effective dose (MED) in rat NOR” value (Sprague-Dawley rats; PO, 10% Tween 80 in water, male Sprague-Dawley rats) of the same compound?
Answer: Its value is 1 mg/kg.

Question: And the “margin in terms of dose, NOR MED relative to the seizure assay and the Irwin battery” value (Sprague-Dawley rats; rat, in vivo)?
Answer: Its value is ~50 fold.

Question: And the “margin in terms of total brain exposure, NOR MED relative to the seizure assay and the Irwin battery” value (Sprague-Dawley rats; rat, in vivo)?
Answer: The value was 11- to 16 fold.

Question: And the inhibition at 10 µM [2]?
Answer: The inhibition at 10 µM was 1%.

Question: And the inhibition at 10 µM [3]?
Answer: The inhibition at 10 µM was -1%.

Question: And the IC50 (CYP 2D6)?
Answer: The IC50 was > 30 µM.
